# Key:
# [1] = tested on: DAT-Cre mice with +HTP or ddHTP in VTA dopamine neurons; experiment: locomotor speed after infusion into the VTA of DAT-Cre mice; format: in vivo, mouse; conditions: for running / locomotor speed, +HTP mice: 10:1 mixture with Alexa647.1DART.2, 1.2 μL of 10 μM into the VTA; for running / locomotor speed, ddHTP mice: same dose
# Excerpt: (FIG. 4A) Validation of gabazine.1^DART.2 in cerebellar slice. Top: voltage-clamp schematic. Bottom: tonic GABAAR in granule cells expressing ^+HTP or ^ddHTP. […] Data are mean±SEM, cells normalized to baseline. (FIG. 4B) In vivo delivery of gabazine.1^DART.2 to cerebellar granule cells. Top right: schematic of experimental approach, GCaMP6f granule-cell activity obtained in the absence of sensory stimuli. Top left: example field of view, GCaMP6f signal averaged across trials. Bottom: example calcium traces (ΔF/F) in an awake ^+HTP mouse before (baseline) and after (1 μL of 1 μM gabazine.1^DART.2) infusion. (FIG. 4C) In vivo, 1 μL of 1 μM gabazine.1^DART.2 to ^+HTP mice. Color indicates ΔF/F, each row is one cell before (left) and after (right) gabazine.1^DART.2 infusion. […] (FIG. 4D) In vivo, 1 μL of 1 μM gabazine.1^DART.2 to ^ddHTP mice. Format as in panel C. […] (FIG. 4E) Validation of gabazine.7^DART.2 in VTA slice. Top: evoked-IPSC configuration. […] Data are mean±SEM, cells normalized to baseline. […] Data are mean±SEM, normalized to baseline speed of each animal.
# Behavioral assays: Assays were performed at least 3 weeks after viral injection to allow for recombinant protein expression. Mice were acclimated to head-fixation for 3 consecutive days prior to behavioral experiments. Reagents were infused into the brain via the cranial cannula. Immediately following infusion, mice were placed into open-field chambers (27 cm×27 cm) in the dark, and behavior was recorded using infrared video.
# A practical issue for intrinsically active neurons is that one can no longer leverage the concept of a floor-effect (i.e., silencing an already quiet neuron), making it difficult to apply optogenetic principles of necessity and sufficiency. Thus, it was sought to examine the technical feasibility of using DART to block neurotransmitter signaling onto these cells; in essence, preventing extrinsic neurotransmitter modulation of dopamine neurons, without disrupting their intrinsic rhythm. Moreover, it was sought to use behavior as the readout, which would likely require manipulation of more cells over a larger brain volume than in the prior experiment. Given this goal, a wide dosing window is key, and thus effort was focused on gabazine.7DART.2, with expression of AAV DIO +HTPGPI or AAV DIO ddHTPGPI in DAT-Cre mice. […] Next, locomotor effects of the manipulations were assessed using the same viral parameters along with bilateral indwelling cannula.
# [2] = tested on: NMDA or AMPA-mediated transmission; experiment: VTA slice, NMDA or AMPA-mediated transmission; format: cell-based, mouse
# Method: Electrophysiology. Preparation of Brain slices: Mice (8-10 weeks) were injected AAV10 HaloTag™-dTomato to striatum or ventral tegmental area (VTA). After 3-5 weeks, mice were deeply anesthetized with isoflurane and euthanized by decapitation. Coronal brain slices ([…]) containing striatum or VTA were prepared by standard methods using a Vibratome (Leica, VT 1200S), in ice-cold high sucrose cutting solution containing (in mM) 220 sucrose, 3 KCl, 1.25 NaH2PO4, 25 NaHCO3, 12 MgSO4.7H2O, 10 glucose, and 0.2 CaCl2) bubbled with 95% O2 and 5% CO2. […]
# Whole-cell patch-clamp recording: The brain slices or retinas were perfused with bubbled aCSF at 29-30° C. with a 2 ml/min flow rate. […] Series resistance was monitored using 5-10 mV hyperpolarizing step throughout the experiment, and cells were discarded if series resistance changed more than ˜15% during the experiment. […] Statistical significance was determined using Student's t or one-way or two-way ANOVA tests. eIPSCs or eEPSCs decay time constants were obtained by fitting a single-exponential function, I(t)=I exp(−t/T)+ISS, where I(t) is the amplitude of the current at time t and ISS is the steady-state current, I is instantaneous current subtracted from Iss, and t is the time constant of decay. […]
Compound,impact on locomotion ([1]; VTA dopamine neurons),antagonism of the AMPAR in slice [2],"running / locomotor speed, +HTP mice [1]","running / locomotor speed, +HTP mice ([1]; listed as gabazine.7^DART.2)","running / locomotor speed, ddHTP mice [1]","running / locomotor speed, ddHTP mice ([1]; listed as gabazine.7^DART.2)",impact on NMDA or AMPA-mediated transmission ([2]; +HTP cells)
COc1cc(CCCCl)ccc1CCOCCNC(=O)c1ccc(CNC(=O)CCOCCOCCOCCOCCOCCOCCOCCOCCOCCOCCOCCOCCOCCOCCOCCOCCOCCOCCOCCOCCOCCOCCOCCOCCOCCOCCOCCOCCOCCOCCOCCOCCOCCOCCOCCOCCn2cc(COCCOCCOCCOCCOCCOCCNC(=O)CCCn3c(=O)c(=O)[nH]c4cc([N+](=O)[O-])c(-n5ccnc5)cc43)nn2)cc1 [YM90K.1DART.2],no impact on locomotion,potent antagonism of the AMPAR,–,–,–,–,–
COc1cc(CCCCl)ccc1CCOCCNC(=O)c1ccc(CNC(=O)CCOCCOCCOCCOCCOCCOCCOCCOCCOCCOCCOCCOCCOCCOCCOCCOCCOCCOCCOCCOCCOCCOCCOCCOCCOCCOCCOCCOCCOCCOCCOCCOCCOCCOCCOCCOCCn2cc(COCCOCCOCCOCCOCCOCCOCCCCCCOc3ccc(-c4nn(CCCCC(=O)O)c(=N)cc4C)cc3)nn2)cc1 [gabazine.7DART.2],–,–,significant increase in running speed,increased locomotor speed,no impact in ^ddHTP animals,not in ^ddHTP control mice,no impact on NMDA or AMPA-mediated transmission

# Source: patent publication US20250213700A1, “COMPOUNDS, COMPOSITIONS, AND METHODS FOR CELL-SPECIFIC PHARMACOLOGY” (Duke University, priority 2022, published 2025)
